The target of test [1] is Isocitrate lyase (Candida albicans, UniProt Q9P8Q7). Nature of the test: Inhibition of recombinant Candida albicans ATCC 10231 ICL using phenylhydrazine and isocitrate as substrate assessed as formation of glyoxylate phenylhydrazone after 30 mins by spectrophotometric analysis.
Test [2] has as its system Candida albicans. Nature of the test: Antifungal activity against Candida albicans SC5314 assessed as growth inhibition after 48 hrs in presence of 2% glucose. Particulars: SC5314, 48 h. It is filed as functional.
Test [3] has as its system Candida albicans. Nature of the test: Antifungal activity against Candida albicans SC5314 assessed as growth inhibition after 48 hrs in presence of 2% potassium acetate. It is filed as functional. Particulars: SC5314, 48 h.
In test [4] the test system is Candida albicans. Nature of the test: Antifungal activity against icl-deficient Candida albicans MRC11 expressing ICL assessed as growth inhibition at 12.5 ug/ml after 3 days in presence of sodium acetate. It is filed as functional, organism-based.
Test [5] has as its system Candida albicans. Nature of the test: Antifungal activity against wild type Candida albicans SC5314 assessed as growth inhibition at 12.5 ug/ml after 3 days in presence of sodium acetate. Format: functional, organism-based.
Test [6] has as its system Candida albicans. The test can be described thus: Antifungal activity against icl-deficient Candida albicans MRC11 expressing ICL assessed as growth inhibition at 12.5 ug/ml after 3 days in presence of glucose. It is filed as functional, organism-based.
In test [7] the test system is Candida albicans. The test can be described thus: Antifungal activity against icl-deficient Candida albicans MRC10 assessed as growth inhibition at 12.5 ug/ml after 3 days in presence of glucose. Format: functional, organism-based.
In test [8] the test system is Candida albicans. The test can be described thus: Antifungal activity against wild type Candida albicans SC5314 assessed as growth inhibition at 12.5 ug/ml after 3 days in presence of glucose. It is filed as functional, organism-based.
Test [9] deals with Candida albicans. The test can be described thus: Antifungal activity against icl-deficient Candida albicans MRC10 assessed as growth inhibition at 12.5 ug/ml after 3 days in presence of sodium acetate. Format: functional, organism-based.
The test system of test [10] is Candida albicans. The test can be described thus: Downregulation of mRNA expression in wild type Candida albicans SC5314 at 12.5 ug/ml after 4 hrs by RT-PCR analysis relative to control. It is filed as functional.
For test [11], the system named is Candida albicans. Nature of the test: Downregulation of mRNA expression in icl-deficient Candida albicans MRC11 expressing ICL at 12.5 ug/ml after 4 hrs by RT-PCR analysis relative to control. Format: functional.

pIC50: −log10 of the molar value. Active and inactive are the calls of the source. The calls are words filed in the database; no cut-off is given here. Bounds are passed on as bounds.

Consider eight compounds from ChEMBL document CHEMBL2401674, “Inhibition of Candida albicans isocitrate lyase activity by cadiolides and synoilides from the ascidian Synoicum sp” (Bioorg Med Chem Lett, 2013).

Isocitrate lyase, sequence (Q9P8Q7 whole entry): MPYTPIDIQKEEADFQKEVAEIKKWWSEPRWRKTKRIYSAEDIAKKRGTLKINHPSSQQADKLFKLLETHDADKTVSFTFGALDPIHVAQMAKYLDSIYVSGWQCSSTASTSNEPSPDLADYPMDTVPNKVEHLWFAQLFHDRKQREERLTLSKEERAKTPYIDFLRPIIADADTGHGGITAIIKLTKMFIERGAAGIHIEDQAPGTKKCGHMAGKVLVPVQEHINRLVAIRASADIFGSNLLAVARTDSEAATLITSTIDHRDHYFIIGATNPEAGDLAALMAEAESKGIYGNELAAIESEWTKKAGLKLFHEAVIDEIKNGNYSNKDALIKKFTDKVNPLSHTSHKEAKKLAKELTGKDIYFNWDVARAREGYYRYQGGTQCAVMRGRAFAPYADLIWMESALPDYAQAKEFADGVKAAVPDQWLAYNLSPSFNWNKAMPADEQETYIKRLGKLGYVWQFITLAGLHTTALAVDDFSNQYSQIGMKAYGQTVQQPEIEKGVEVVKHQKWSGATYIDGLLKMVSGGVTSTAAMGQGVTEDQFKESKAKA

For the compound `COC(=O)/C(C(=O)c1cc(Br)c(O)c(Br)c1)=C(\C(=O)OC)c1ccc(O)c(Br)c1`, the pIC50 in [1] was 3.91. For the same compound, the values for the minimal inhibitory concentration (MIC) in test [2] and in test [3] were over 200 µg/mL and 100 µg/mL, respectively.

In the case of `O=C1O/C(=C\c2cc(Br)c(O)c(Br)c2)C(c2ccc(O)c(Br)c2)=C1C(=O)c1cc(Br)c(O)c(Br)c1` [CADIOLIDE E], the “growth inhibition (GI)” value in test [4], in test [5] and in [9] was “Active” each time. Also, the “growth inhibition (GI)” value in test [6], in test [7] and in test [8] was “inactive” in each case. For the same compound, in [1], the pIC50 is 5.12. In addition, the values for the MIC in [2] and in [3] were over 200 µg/mL and 12.5 µg/mL, respectively. Further, the “fold change (FC)” value in [10] and in test [11] was 5 throughout.

For the compound `COC(=O)C1=C(c2cc(Br)c(O)c(Br)c2)C(=O)OC1=C(c1cc(Br)c(O)c(Br)c1)c1cc(Br)c(O)c(Br)c1` [CADIOLIDE I], the negative logarithm of the IC50 (pIC50) in [1] is 4.98. The MIC was over 200 µg/mL in test [2] and 50 µg/mL in test [3].

Turning to `O=C(O)CC[N+](=O)[O-]`, the pIC50 in test [1] is 4.86. Further, the minimum inhibitory concentration (MIC) in test [2] was over 200 µg/mL; in test [3], 200 µg/mL.

Take `COc1c(Br)cc([C@H](O)C2=C(c3ccc(O)c(Br)c3)/C(=C/c3ccc(O)c(Br)c3)OC2=O)cc1Br` [CADIOLIDE G]: the pIC50 in test [1] is 4.31. The MIC was over 200 µg/mL in test [2] and 50 µg/mL in test [3].

Regarding `C[C@@H]1[C@H](O)[C@@H](C)/C=C/C=C/C=C/C=C/C=C/C=C/C=C/[C@H](O[C@@H]2O[C@H](C)[C@@H](O)[C@H](N)[C@@H]2O)C[C@@H]2O[C@](O)(C[C@@H](O)C[C@@H](O)[C@H](O)CC[C@@H](O)C[C@@H](O)CC(=O)O[C@H]1C)C[C@H](O)[C@H]2C(=O)O` [AMPHOTERICIN B], the MIC in test [2] and in test [3] was 1.56 µg/mL throughout.

Regarding `COC(=O)/C(C(=O)c1cc(Br)c(O)c(Br)c1)=C(\C(=O)OC)c1cc(Br)c(O)c(Br)c1`, the pIC50 in test [1] is 4.12. Further, the MIC in [2] was over 200 µg/mL; in test [3] it was 100 µg/mL.

Take `COc1ccc(/C=C2\OC(=O)C([C@@H](O)c3cc(Br)c(OC)c(Br)c3)=C2c2cc(Br)c(O)c(Br)c2)cc1`: the pIC50 in test [1] is 4.77. Also, the results for the MIC in test [2] and in test [3] were over 200 µg/mL and 50 µg/mL, respectively.

One may read the pIC50 as the negative decadic logarithm of the IC50, by convention in mol/L. One may read the MIC as the lowest concentration found to suppress growth.
